Laboratory results from article PMC5384962, “First-in-human studies of seletalisib, an orally bioavailable small-molecule PI3Kδ inhibitor for the treatment of immune and inflammatory diseases” (European Journal of Clinical Pharmacology, 2017).

What was measured:
[1] = Study-1 Part-A single ascending dose pharmacokinetics (plasma and urine); type: in vivo, human; conditions: for Fe: fraction excreted in urine; for AUC / AUC(0-t) / Cmax / Vd/F / half-life / Tmax / CL renal: human, oral; for AUC / AUC(0-t) / Cmax / Vd/F / half-life / Tmax: plasma; for Vd/F: read-out: Vz/F; for CL renal: urine and plasma; for Ae(0–t): urine
From the text: (§1) These were phase I, randomised, double-blind, placebo-controlled studies designed to evaluate the safety, tolerability, PK and PD profiles of seletalisib following oral administration of single ascending doses and multiple ascending doses. Study-1 was a first-in-human, double-blind (sponsor-, investigator- and subject-blind) study that had two parts: Part-A evaluated seletalisib (single ascending doses) in healthy adults (including evaluation of food effects; Table 1); Part-B evaluated seletalisib (multiple ascending doses) in healthy adults and subjects with mild-to-moderate psoriasis. Study-2 was also a double-blind study of seletalisib (single and multiple ascending doses) in healthy subjects, which investigated higher doses.
(§2) Plasma concentrations of seletalisib were measured by high-performance liquid chromatography with tandem mass spectrometry (see Online Resource S1 for further details). The following PK parameters were determined in each study: AUC for seletalisib, maximum observed plasma concentration of seletalisib after a single dose (Cmax) and at steady-state (Cmaxss), time of occurrence of Cmax (tmax, obtained directly from the observed plasma concentration-time curves), minimum observed plasma concentration of seletalisib at steady-state immediately before the next dose would be administered (Ctrough), apparent terminal half-life, apparent volume of distribution after single dosing (Vz/F) and at steady-state (Vzss/F) and apparent total body clearance after single dosing (CL/F) and at steady-state (CLss/F). Accumulation factor based on AUC(0–24) [R(AUC)] and accumulation factor based on Cmax [R(Cmax)] were determined on multiple dose day 14. The following study-specific PK parameters were also determined: Study-1, total amount of seletalisib excreted in urine (Ae), renal clearance (CLr) and fraction of drug excreted in urine; Study-2, AUC(0–10) in BID dose groups, terminal elimination rate constant in plasma (λz), mean residence time (MRT) and linearity factor (LF [AUC(0–24)ss/AUC]).
(§3) Methods for the calculation of seletalisib PK parameters are detailed in Online Resource S1.
(§4) Seletalisib PK parameters were calculated via non-compartmental analysis methods from the individual concentration-time data using Phoenix WinNonlin version 6.2 (Certara, Princeton, NJ, USA). Urine (Study-1 only) and plasma PK parameters of seletalisib were reported for each subject and summarised by study part and dose group. Geometric mean and percentage geometric coefficient of variation (GeoCV%) were reported for all parameters except for tmax, which was reported using median and range. Dose proportionality for AUC and Cmax at Day_1 (Study-1 [Part-A & Part-B]; Study-2, single ascending dose-Day_1) and at steady state at Day_14 (Study-1 [Part-B]; Study-2, multiple ascending dose-Day_14) was examined via the power model and reported graphically. In Study-1, an assessment of food effect (fed versus fasted) was made for Cmax and AUC from the data for subjects who received the same dose in fed and fasted states in Part-A.

[2] = parameters: method as in ref 15 = [15]; 15. UCB data on file: UCB1446368-in vivo-rep; November 2011; UCB BioPharma sprl Belgium and DMPK10_062 UCB1446368 iv 1mpk male HW rat BDC; August 2010; UCB BioPharma sprl Belgium; conditions: preclinical animal studies; cited from earlier work
[3] = Study-2 single-dose pharmacokinetics (plasma); type: in vivo, human; conditions: for AUC(0-t) / half-life / Cmax / Tmax / AUC / MRT / Vd/F: human, plasma, oral; for Vd/F: read-out: Vz/F
From the text: as §1, §2, §3, §4

[4] = Study-1 Part-A, single dose 1 mg fasted, geo mean (GeoCV%)
[5] = Study-1 Part-A, single dose 5 mg fasted, geo mean (GeoCV%)
[6] = Study-1 Part-A, single dose 5 mg fed, geo mean (GeoCV%)
[7] = Study-1 Part-A, single dose 10 mg fasted, geo mean (GeoCV%)
[8] = Study-1 Part-A, single dose 15 mg fasted, geo mean (GeoCV%)
[9] = 1 mg, Study-1 Part-A, single dose 1 mg fasted, geo mean (GeoCV%)
[10] = 5 mg, Study-1 Part-A, single dose 5 mg fasted, geo mean (GeoCV%)
[11] = 5 mg, Study-1 Part-A, single dose 5 mg fed, geo mean (GeoCV%)
[12] = 10 mg, Study-1 Part-A, single dose 10 mg fasted, geo mean (GeoCV%)
[13] = 15 mg, Study-1 Part-A, single dose 15 mg fasted, geo mean (GeoCV%)
[14] = Study-2 single dose, 30 mg QD cohort, geo mean (GeoCV%)
[15] = Study-2 single dose, 45 mg QD cohort, geo mean (GeoCV%)
[16] = Study-2 single dose, 60 mg QD cohort, geo mean (GeoCV%)
[17] = Study-2 single dose, 90 mg QD cohort, geo mean (GeoCV%)

For `[O-][n+]1cccc(-c2nc3c(Cl)cccc3cc2[C@@H](Nc2ncnc3cccnc23)C(F)(F)F)c1` [Seletalisib, seletalisib], the food effect ([1]; Study-1 Part-A, 5 mg fed (high-fat, high-calorie meal) vs fasted) was “No clinically significant food effect”, the “geometric mean fraction of drug excreted in urine” value ([1]; Study-1 Part-A, parent drug, across dose groups) was under 6% and the CL/F [1, 4] was 1.93 (33.4) L/h. The CL/F [1, 5] was 2.19 (34.3) L/h, the CL/F [1, 6] was 1.87 (44.6) L/h and the CL/F [1, 7] was 1.93 (17.3) L/h. The CL/F [1, 8] was 1.93 (25.4) L/h, the Fe [1, 4] was 5.79 (56.6) % and the Fe [1, 5] was 5.37 (35.3) %. The Fe [1, 6] was 4.81 (49.6) %, the Fe [1, 7] was 4.76 (66.0) % and the Fe [1, 8] was 4.59 (33.6) %. For the same compound, the AUC [1, 9] was 0.518 µg·h/mL, the AUC(0-t) [1, 9] was 0.473 µg·h/mL and the Cmax [1, 9] was 0.0267 µg/mL. It also gave a Vd/F [1, 9] of 51.5 L, a half-life ([1]; 1 mg, Study-1 Part-A, single dose 1 mg fasted, geo mean (GeoCV%), read-out: t1/2 (converted)) of 18.5 h and a Tmax ([1]; 1 mg, Study-1 Part-A, single dose 1 mg fasted, median (range), read-out: tmax) of 1.77 h. For the same compound, the AUC [1, 10] was 2.29 µg·h/mL, the AUC(0-t) [1, 10] was 2.1 µg·h/mL and the Cmax [1, 10] was 0.109 µg/mL. For the same compound, the Vd/F [1, 10] was 59.2 L, the half-life ([1]; 5 mg, Study-1 Part-A, single dose 5 mg fasted, geo mean (GeoCV%), read-out: t1/2 (converted)) was 18.8 h and the Tmax ([1]; 5 mg, Study-1 Part-A, single dose 5 mg fasted, median (range), read-out: tmax) was 2.01 h. For the same compound, the AUC [1, 11] was 2.68 µg·h/mL, the AUC(0-t) [1, 11] was 2.48 µg·h/mL and the Cmax [1, 11] was 0.105 µg/mL. The Vd/F [1, 11] was 47.6 L, the half-life ([1]; 5 mg, Study-1 Part-A, single dose 5 mg fed, geo mean (GeoCV%), read-out: t1/2 (converted)) was 17.7 h and the Tmax ([1]; 5 mg, Study-1 Part-A, single dose 5 mg fed, median (range), read-out: tmax) was 4 h. It also gave an AUC [1, 12] of 5.17 µg·h/mL, an AUC(0-t) [1, 12] of 4.8 µg·h/mL and a Cmax [1, 12] of 0.279 µg/mL. The Vd/F [1, 12] was 54 L, the half-life ([1]; 10 mg, Study-1 Part-A, single dose 10 mg fasted, geo mean (GeoCV%), read-out: t1/2 (converted)) was 19.4 h and the Tmax ([1]; 10 mg, Study-1 Part-A, single dose 10 mg fasted, median (range), read-out: tmax) was 1.77 h. The AUC [1, 13] was 7.76 µg·h/mL, the AUC(0-t) [1, 13] was 7 µg·h/mL and the Cmax [1, 13] was 0.313 µg/mL. The Vd/F [1, 13] was 58.7 L, the half-life ([1]; 15 mg, Study-1 Part-A, single dose 15 mg fasted, geo mean (GeoCV%), read-out: t1/2 (converted)) was 21.1 h and the Tmax ([1]; 15 mg, Study-1 Part-A, single dose 15 mg fasted, median (range), read-out: tmax) was 3 h. It also gave a half-life ([1]; Study-1, range across dose groups, read-out: geometric mean t1/2) of 17.7 to 21.1 h, a Tmax ([1]; Study-1 Part-A, single dose, range across fasted treatment groups, read-out: median tmax) of 1.8 to 3 h and a CL renal [1, 9] of 1.87 mL/min. For the same compound, the CL renal [1, 10] was 1.95 mL/min, the CL renal [1, 11] was 1.5 mL/min and the CL renal [1, 12] was 1.53 mL/min. For the same compound, the CL renal [1, 13] was 1.48 mL/min, the “Ae(0–t)” value [1, 4] was 0.058 (56.6) mg and the “Ae(0–t)” value [1, 5] was 0.269 (35.3) mg. For the same compound, the “Ae(0–t)” value [1, 6] was 0.241 (49.6) mg, the “Ae(0–t)” value [1, 7] was 0.476 (66.0) mg and the “Ae(0–t)” value [1, 8] was 0.689 (33.6) mg. The route of elimination [2] was “primarily eliminated by combined hepatic metabolism and biliary excretion”, the CL/F [3, 14] was 2.65 (30.4) L/h and the CL/F [3, 15] was 2.61 (33.0) L/h. For the same compound, the CL/F [3, 16] was 2.19 (32.3) L/h, the CL/F [3, 17] was 2.58 (33.3) L/h and the AUC(0-t) ([3]; 30 mg, Study-2 single dose, 30 mg QD cohort, geo mean (GeoCV%), read-out: AUC(0–24)) was 6.49 µg·h/mL. For the same compound, the AUC(0-t) ([3]; 30 mg, Study-2 single dose, 30 mg QD cohort, geo mean (GeoCV%), read-out: AUC(0–t)) was 10.2 µg·h/mL, the AUC(0-t) ([3]; 30 mg, Study-2 single-dose part, 30 mg BID cohort, geo mean (GeoCV%), read-out: AUC(0–10)) was 3.5 µg·h/mL and the AUC(0-t) ([3]; 45 mg, Study-2 single dose, 45 mg QD cohort, geo mean (GeoCV%), read-out: AUC(0–24)) was 9.28 µg·h/mL. For the same compound, the AUC(0-t) ([3]; 45 mg, Study-2 single dose, 45 mg QD cohort, geo mean (GeoCV%), read-out: AUC(0–t)) was 15.1 µg·h/mL, the AUC(0-t) ([3]; 60 mg, Study-2 single dose, 60 mg QD cohort, geo mean (GeoCV%), read-out: AUC(0–24)) was 16.3 µg·h/mL and the AUC(0-t) ([3]; 60 mg, Study-2 single dose, 60 mg QD cohort, geo mean (GeoCV%), read-out: AUC(0–t)) was 25.1 µg·h/mL. It also gave an AUC(0-t) ([3]; 90 mg, Study-2 single dose, 90 mg QD cohort, geo mean (GeoCV%), read-out: AUC(0–24)) of 19.7 µg·h/mL, an AUC(0-t) ([3]; 90 mg, Study-2 single dose, 90 mg QD cohort, geo mean (GeoCV%), read-out: AUC(0–t)) of 31.2 µg·h/mL and a half-life ([3]; Study-2, range across dose groups, read-out: geometric mean t1/2) of 18.1 to 22.4 h. The Cmax ([3]; Study-2, single dose, range across groups, read-out: geometric mean Cmax) was 0.517 to 1.51 µg/mL, the Tmax ([3]; Study-2, single dose, range across groups, read-out: median tmax) was 3 to 4 h and the AUC [3, 14] was 11.3 µg·h/mL. The MRT [3, 14] was 22.1 h, the Cmax ([3]; Study-2 single dose, 30 mg QD cohort, geo mean (GeoCV%), read-out: Cmax) was 0.517 µg/mL and the Vd/F [3, 14] was 74.4 L. It also gave a half-life ([3]; Study-2 single dose, 30 mg QD cohort, geo mean (GeoCV%), read-out: t1/2 (converted)) of 19.5 h, a Tmax ([3]; Study-2 single dose, 30 mg QD cohort, median (range), read-out: tmax) of 4 h and an AUC [3, 15] of 17.3 µg·h/mL. The MRT [3, 15] was 23 h, the Cmax ([3]; Study-2 single dose, 45 mg QD cohort, geo mean (GeoCV%), read-out: Cmax) was 0.691 µg/mL and the Vd/F [3, 15] was 84.2 L. For the same compound, the half-life ([3]; Study-2 single dose, 45 mg QD cohort, geo mean (GeoCV%), read-out: t1/2 (converted)) was 22.4 h, the Tmax ([3]; Study-2 single dose, 45 mg QD cohort, median (range), read-out: tmax) was 4 h and the AUC [3, 16] was 27.4 µg·h/mL. The MRT [3, 16] was 21.5 h, the Cmax ([3]; Study-2 single dose, 60 mg QD cohort, geo mean (GeoCV%), read-out: Cmax) was 1.25 µg/mL and the Vd/F [3, 16] was 57.2 L. It also gave a half-life ([3]; Study-2 single dose, 60 mg QD cohort, geo mean (GeoCV%), read-out: t1/2 (converted)) of 18.1 h, a Tmax ([3]; Study-2 single dose, 60 mg QD cohort, median (range), read-out: tmax) of 3 h and an AUC [3, 17] of 34.9 µg·h/mL. The MRT [3, 17] was 22.4 h, the Cmax ([3]; Study-2 single dose, 90 mg QD cohort, geo mean (GeoCV%), read-out: Cmax) was 1.51 µg/mL and the Vd/F [3, 17] was 77.3 L. It also gave a half-life ([3]; Study-2 single dose, 90 mg QD cohort, geo mean (GeoCV%), read-out: t1/2 (converted)) of 20.8 h and a Tmax ([3]; Study-2 single dose, 90 mg QD cohort, median (range), read-out: tmax) of 4 h.
